Measured values as given in patent US9783527B2, “Indazole ureas and method of use” (AbbVie Inc., priority 2014, dated 2017).

These molecules were tested against human Nav1.7 (Homo sapiens (Human), UniProt Q15858) (assay: FRET-based membrane potential assay, recombinant human sodium channel Nav1.7). Conditions: HEK293 cells stably expressing recombinant human Nav1.7; depolarization with veratridine (EC80) + scorpion venom.
Assay type: cell-based
Experimental: FRET-Based Membrane Potential Assays.
Recombinant, Human Sodium Channel, Nav1.7.
Two days prior to the experiment, frozen HEK293 cells stably expressing recombinant human Nav1.7 were quickly thawed and plated at 25,000 cells/well in growth medium [DMEM (Invitrogen #11965) with 10% HI FBS (Invitrogen #10082), 2 mM glutamine, 100 units/mL penicillin, 0.1 mg/mL streptomycin (PSG, Sigma #G1146), and 500 μg/mL Geneticin (Invitrogen #10131)] in black-walled, clear-bottom 384-well poly-D-lysine-coated assay plates (Greiner Bio-One, Frickenhausen, Germany) and incubated in a humidified 5% CO2 incubator at 37° C. On the day of the assay, medium was removed by aspiration, and cells were washed with assay buffer [HBSS (Invitrogen, Carlsbad, Calif.) containing 20 mM HEPES (Invitrogen, Carlsbad, Calif.)]. After washing, 30 μL assay buffer containing the fluorescent voltage-sensor probe CC2-DMPE (Invitrogen, Carlsbad, Calif.) at 20 μM and 0.01% pluronic F-127 (Invitrogen, Carlsbad, Calif.) was added to the cells. Cells were incubated for 40 minutes at room temperature in the dark. Following the incubation, the cells were washed and 30 μL assay buffer containing 2.5 μM DiSBAC2(3) substrate (Invitrogen, Carlsbad, Calif.) and 0.5 mM VABSC-1 (Invitrogen, Carlsbad, Calif.) was added to the cells. The cells were incubated for 90 minutes at room temperature in the dark. Fluorescence readings were made using a FLIPR®^TETRA (Molecular Devices, Sunnyvale Calif.) equipped with voltage-sensor probe optics. At the start of each experiment the optimal (EC80) concentration of depolarizing agent (veratridine) was determined by testing a dilution curve of assay buffer containing veratridine (Sigma-Aldrich, St. Louis, Mo.) and 1 mg/mL scorpion venom (SVqq, from Leiurus quinquestriatus; Sigma-Aldrich, St. Louis, Mo.). […] Test compounds in the daughter plate were diluted to (˜3×) solutions in assay buffer immediately before assaying. Using the FLIPR®^TETRA, 20 μL of the (3×) compound solutions were first added to the cells, then 20 μL of depolarizing solution (3×EC80 veratridine+SVqq) were added 3 minutes later to activate the channel. Changes in fluorescence were measured at wavelengths of 440-480 nm and 565-625 nm over the course of the experimental run. Membrane depolarization was expressed as a ratio of the maximum F440-480 nm/F565-625 nm reading above average baseline F440-480 nm/F565-625 nm reading. IC50 values were calculated from curve fits of the ratio data using a four-parameter logistic Hill equation (Accelrys Assay Explorer 3.3 Client, Accelrys, San Diego, Calif.) with percent inhibition plotted against compound concentration.

Chain of human Nav1.7 (Q15858 whole entry): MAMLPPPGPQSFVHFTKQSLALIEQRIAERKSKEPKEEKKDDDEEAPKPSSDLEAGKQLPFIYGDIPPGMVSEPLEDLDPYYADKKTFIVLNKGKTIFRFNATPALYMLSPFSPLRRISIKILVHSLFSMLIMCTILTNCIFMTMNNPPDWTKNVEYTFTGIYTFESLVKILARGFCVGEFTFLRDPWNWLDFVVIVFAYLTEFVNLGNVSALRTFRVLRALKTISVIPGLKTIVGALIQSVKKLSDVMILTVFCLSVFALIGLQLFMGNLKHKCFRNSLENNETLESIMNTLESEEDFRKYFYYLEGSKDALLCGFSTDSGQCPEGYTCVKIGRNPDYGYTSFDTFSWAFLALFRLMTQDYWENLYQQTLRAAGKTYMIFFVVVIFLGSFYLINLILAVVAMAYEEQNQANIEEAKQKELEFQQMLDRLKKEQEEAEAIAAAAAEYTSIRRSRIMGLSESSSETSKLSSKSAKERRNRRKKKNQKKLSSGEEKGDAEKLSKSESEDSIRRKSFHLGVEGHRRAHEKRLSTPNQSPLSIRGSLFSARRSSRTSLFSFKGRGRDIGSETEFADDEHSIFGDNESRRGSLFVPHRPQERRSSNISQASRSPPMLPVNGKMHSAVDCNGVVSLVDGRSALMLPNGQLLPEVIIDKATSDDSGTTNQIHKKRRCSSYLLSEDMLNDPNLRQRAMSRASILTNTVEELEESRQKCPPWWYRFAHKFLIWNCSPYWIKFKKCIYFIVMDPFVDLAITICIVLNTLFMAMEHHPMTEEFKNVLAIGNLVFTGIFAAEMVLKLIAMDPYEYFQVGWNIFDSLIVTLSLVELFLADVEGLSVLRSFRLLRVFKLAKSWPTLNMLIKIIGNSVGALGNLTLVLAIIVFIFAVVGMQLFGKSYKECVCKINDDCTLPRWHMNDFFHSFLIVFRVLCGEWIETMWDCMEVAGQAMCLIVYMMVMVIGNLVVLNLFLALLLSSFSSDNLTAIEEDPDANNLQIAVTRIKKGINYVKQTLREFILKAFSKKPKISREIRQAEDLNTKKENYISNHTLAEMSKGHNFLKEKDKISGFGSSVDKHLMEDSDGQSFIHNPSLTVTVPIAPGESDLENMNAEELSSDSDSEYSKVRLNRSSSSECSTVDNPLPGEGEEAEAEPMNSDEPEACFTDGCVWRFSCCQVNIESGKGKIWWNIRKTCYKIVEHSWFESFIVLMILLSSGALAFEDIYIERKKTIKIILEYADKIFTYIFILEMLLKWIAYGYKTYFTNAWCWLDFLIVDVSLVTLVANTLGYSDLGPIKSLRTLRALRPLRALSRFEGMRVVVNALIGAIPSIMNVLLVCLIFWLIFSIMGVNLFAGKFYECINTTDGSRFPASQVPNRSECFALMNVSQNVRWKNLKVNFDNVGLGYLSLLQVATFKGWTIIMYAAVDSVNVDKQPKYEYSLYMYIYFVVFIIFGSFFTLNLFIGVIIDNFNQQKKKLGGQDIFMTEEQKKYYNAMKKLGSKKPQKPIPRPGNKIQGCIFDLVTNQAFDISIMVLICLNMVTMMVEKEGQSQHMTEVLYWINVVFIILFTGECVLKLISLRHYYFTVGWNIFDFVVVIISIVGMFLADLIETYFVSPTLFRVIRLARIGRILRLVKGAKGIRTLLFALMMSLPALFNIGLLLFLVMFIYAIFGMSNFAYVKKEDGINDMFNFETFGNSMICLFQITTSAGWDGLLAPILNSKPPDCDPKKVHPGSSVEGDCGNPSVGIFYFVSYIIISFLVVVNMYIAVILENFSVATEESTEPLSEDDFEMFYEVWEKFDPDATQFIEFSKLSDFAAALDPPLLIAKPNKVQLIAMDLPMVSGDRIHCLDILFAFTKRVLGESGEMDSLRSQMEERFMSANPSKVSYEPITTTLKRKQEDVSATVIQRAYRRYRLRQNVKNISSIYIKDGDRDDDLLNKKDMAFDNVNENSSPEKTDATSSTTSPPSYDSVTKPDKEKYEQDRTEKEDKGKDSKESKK

| Compound | IC50 [nM] |
| --- | --- |
| O=C(CN1CCN(c2cccc3c2cnn3-c2ccccc2F)C1=O)N1CCC1 [Example 94, 1-[2-(azetidin-1-yl)-2-oxoethyl]-3-[1-(2-fluorophenyl)-1H-indazol-4-yl]imidazolidin-2-one] | 11900 |
| CC(C)NC(=O)CN1CCN(c2cccc3c2cnn3-c2ccccc2F)C1=O [Example 95, 2-{3-[1-(2-fluorophenyl)-1H-indazol-4-yl]-2-oxoimidazolidin-1-yl}-N-isopropylacetamide] | 2680 |
| CC(C)OCC(=O)N1CCN(c2cccc3c2cnn3-c2ccccc2F)C1=O [Example 96, 1-[1-(2-fluorophenyl)-1H-indazol-4-yl]-3-(isopropoxyacetyl)imidazolidin-2-one] | 1640 |
| O=C1N(Cc2cc(C(F)(F)F)ccn2)CCN1c1cccc2c1cnn2-c1ccccc1F [Example 97, 1-[1-(2-fluorophenyl)-1H-indazol-4-yl]-3-{[4-(trifluoromethyl)pyridin-2-yl]methyl}imidazolidin-2-one] | 2390 |
| CCOCC1(F)CCN(C(=O)CN2CCN(c3cccc4c3cnn4-c3ccccc3F)C2=O)C1 (stereo not shown) [Example 98, 1-{2-[3-(ethoxymethyl)-3-fluoropyrrolidin-1-yl]-2-oxoethyl}-3-[1-(2-fluorophenyl)-1H-indazol-4-yl]imidazolidin-2-one] | 1440 |
| O=C(CN1CCN(c2cccc3c2cnn3-c2ccccc2F)C1=O)N1CCN2CCC[C@H]2C1 [Example 99, 1-[1-(2-fluorophenyl)-1H-indazol-4-yl]-3-{2-[(8aS)-hexahydropyrrolo[1,2-c]pyrazin-2(1H)-yl]-2-oxoethyl}imidazolidin-2-one] | 482 |
| CC1COCC(C)N1C(=O)CN1CCN(c2cccc3c2cnn3-c2ccccc2F)C1=O (stereo not shown) [Example 101, 1-[2-(3,5-dimethylmorpholin-4-yl)-2-oxoethyl]-3-[1-(2-fluorophenyl)-1H-indazol-4-yl]imidazolidin-2-one] | 3520 |
| O=C(CN1CCN(c2cccc3c2cnn3-c2ccccc2F)C1=O)N1CCC2(C1)OCCO2 [Example 102, 1-[2-(1,4-dioxa-7-azaspiro[4.4]non-7-yl)-2-oxoethyl]-3-[1-(2-fluorophenyl)-1H-indazol-4-yl]imidazolidin-2-one] | 3490 |
| O=C1CN(C(=O)CN2CCN(c3cccc4c3cnn4-c3ccccc3F)C2=O)CC(=O)N1 [Example 103, 4-({3-[1-(2-fluorophenyl)-1H-indazol-4-yl]-2-oxoimidazolidin-1-yl}acetyl)piperazine-2,6-dione] | 3620 |
| CN1CC2CN(C(=O)CN3CCN(c4cccc5c4cnn5-c4ccccc4F)C3=O)CC2C1 (stereo not shown) [Example 104, 1-[1-(2-fluorophenyl)-1H-indazol-4-yl]-3-[2-(5-methylhexahydropyrrolo[3,4-c]pyrrol-2(1H)-yl)-2-oxoethyl]imidazolidin-2-one] | 6260 |
| O=C1N(CC(=O)N2CCOC3CCCCC32)CCN1c1cccc2c1cnn2-c1ccccc1F (stereo not shown) [Example 105, 1-[1-(2-fluorophenyl)-1H-indazol-4-yl]-3-[2-(octahydro-4H-1,4-benzoxazin-4-yl)-2-oxoethyl]imidazolidin-2-one] | 1330 |
| O=C(CN1CCN(c2cccc3c2cnn3-c2ccccc2F)C1=O)N1CC2CCCC2C1 (stereo not shown) [Example 106, 1-[1-(2-fluorophenyl)-1H-indazol-4-yl]-3-[2-(hexahydrocyclopenta[c]pyrrol-2(1H)-yl)-2-oxoethyl]imidazolidin-2-one] | 635 |
| O=C1N(CC(=O)N2CC3C[C@@H]4CC2C[C@H](C3)C4)CCN1c1cccc2c1cnn2-c1ccccc1F [Example 107, 1-{2-[(1R,3r,6s,8S)-4-azatricyclo[4.3.1.1^3,8]undec-4-yl]-2-oxoethyl}-3-[1-(2-fluorophenyl)-1H-indazol-4-yl]imidazolidin-2-one] | 1280 |
| CN1C(=O)[C@H]2CN(C(=O)CN3CCN(c4cccc5c4cnn5-c4ccccc4F)C3=O)C[C@H]2C1=O [Example 108, (3aR,6aS)-5-({3-[1-(2-fluorophenyl)-1H-indazol-4-yl]-2-oxoimidazolidin-1-yl}acetyl)-2-methyltetrahydropyrrolo[3,4-c]pyrrole-1,3(2H,3aH)-dione] | 12300 |
| COC1C2CCC1CN(C(=O)CN1CCN(c3cccc4c3cnn4-c3ccccc3F)C1=O)C2 (stereo not shown) [Example 109, 1-[1-(2-fluorophenyl)-1H-indazol-4-yl]-3-[2-(8-methoxy-3-azabicyclo[3.2.1]oct-3-yl)-2-oxoethyl]imidazolidin-2-one] | 1020 |
| O=C(CN1CCN(c2cccc3c2cnn3-c2ccccc2F)C1=O)N1CCCC2(CC1)OCCO2 [Example 110, 1-[2-(1,4-dioxa-8-azaspiro[4.6]undec-8-yl)-2-oxoethyl]-3-[1-(2-fluorophenyl)-1H-indazol-4-yl]imidazolidin-2-one] | 2810 |
| O=C(CN1CCN(c2cccc3c2cnn3-c2ccccc2F)C1=O)N1C[C@@H]2[C@@H]3CC[C@@H](C3)[C@@H]2C1 [Example 111, 1-[1-(2-fluorophenyl)-1H-indazol-4-yl]-3-{2-[(3aR,4R,7S,7aS)-octahydro-2H-4,7-methanoisoindol-2-yl]-2-oxoethyl}imidazolidin-2-one] | 835 |
| CN1CCCC2CN(C(=O)CN3CCN(c4cccc5c4cnn5-c4ccccc4F)C3=O)CC21 (stereo not shown) [Example 112, 1-[1-(2-fluorophenyl)-1H-indazol-4-yl]-3-[2-(1-methyloctahydro-6H-pyrrolo[3,4-b]pyridin-6-yl)-2-oxoethyl]imidazolidin-2-one] | 2690 |
| C[C@@H]1COCCN1C(=O)CN1CCN(c2cccc3c2cnn3-c2ccccc2F)C1=O [Example 113, 1-[1-(2-fluorophenyl)-1H-indazol-4-yl]-3-{2-[(3R)-3-methylmorpholin-4-yl]-2-oxoethyl}imidazolidin-2-one] | 2270 |
| CN1[C@H]2CC[C@@H]1CN(C(=O)CN1CCN(c3cccc4c3cnn4-c3ccccc3F)C1=O)CC2 [Example 114, 1-[1-(2-fluorophenyl)-1H-indazol-4-yl]-3-{2-[(1R,6S)-9-methyl-3,9-diazabicyclo[4.2.1]non-3-yl]-2-oxoethyl}imidazolidin-2-one] | 14300 |
| CC(C)C1CCCN1C(=O)CN1CCN(c2cccc3c2cnn3-c2ccccc2F)C1=O (stereo not shown) [Example 116, 1-[1-(2-fluorophenyl)-1H-indazol-4-yl]-3-[2-(2-isopropylpyrrolidin-1-yl)-2-oxoethyl]imidazolidin-2-one] | 821 |
| CC(C)CC1CCCN1C(=O)CN1CCN(c2cccc3c2cnn3-c2ccccc2F)C1=O (stereo not shown) [Example 117, 1-[1-(2-fluorophenyl)-1H-indazol-4-yl]-3-[2-(2-isobutylpyrrolidin-1-yl)-2-oxoethyl]imidazolidin-2-one] | 1790 |
| C[C@@H]1CCCN1C(=O)CN1CCN(c2cccc3c2cnn3-c2ccccc2F)C1=O [Example 118, 1-[1-(2-fluorophenyl)-1H-indazol-4-yl]-3-{2-[(2R)-2-methylpyrrolidin-1-yl]-2-oxoethyl}imidazolidin-2-one] | 1100 |
| COC(=O)[C@H]1CCCN1C(=O)CN1CCN(c2cccc3c2cnn3-c2ccccc2F)C1=O [Example 119, methyl 1-({3-[1-(2-fluorophenyl)-1H-indazol-4-yl]-2-oxoimidazolidin-1-yl}acetyl)-D-prolinate] | 1760 |
| O=C(Nc1ccccc1)[C@H]1CCCN1C(=O)CN1CCN(c2cccc3c2cnn3-c2ccccc2F)C1=O [Example 120, 1-({3-[1-(2-fluorophenyl)-1H-indazol-4-yl]-2-oxoimidazolidin-1-yl}acetyl)-N-phenyl-D-prolinamide] | 4180 |
| O=C1N(CC(=O)N2C[C@H](O)C[C@@H]2c2cc(F)ccc2F)CCN1c1cccc2c1cnn2-c1ccccc1F [Example 121, 1-{2-[(2R,4R)-2-(2,5-difluorophenyl)-4-hydroxypyrrolidin-1-yl]-2-oxoethyl}-3-[1-(2-fluorophenyl)-1H-indazol-4-yl]imidazolidin-2-one] | 2410 |
| O=C1N(CC(=O)N2C[C@@H](O)C[C@@H]2c2cc(F)ccc2F)CCN1c1cccc2c1cnn2-c1ccccc1F [Example 122, 1-{2-[(2R,4S)-2-(2,5-difluorophenyl)-4-hydroxypyrrolidin-1-yl]-2-oxoethyl}-3-[1-(2-fluorophenyl)-1H-indazol-4-yl]imidazolidin-2-one] | 2300 |
| CC(C)CC(O)CN1CCN(c2cccc3c2cnn3-c2ccccc2F)C1=O (stereo not shown) [Example 123, 1-[1-(2-fluorophenyl)-1H-indazol-4-yl]-3-(2-hydroxy-4-methylpentyl)imidazolidin-2-one] | 346 |
